In patent US10508085B2, “Compounds and methods for IDO and TDO modulation, and indications therefor” (Plexxikon Inc., priority 2016, dated 2019):
Where two headings read alike, the source gives them in different places.

Legend:
[1] = molecular target: T1, Human Indoleamine 2,3-dioxygenase (IDO) (Homo sapiens, UniProt P14902); experiment: Human IDO enzymatic assay (kynurenine level); assay type: biochemical; details: 6 nM IDO, 10 μM L-Trp; geometric mean; read-out: IDO1 GMean: IC50 (μM) (Biochemical Assay)
T1 construct: His tag (N); made in house; host or cells: E. coli
T1 sequence (P14902 whole entry): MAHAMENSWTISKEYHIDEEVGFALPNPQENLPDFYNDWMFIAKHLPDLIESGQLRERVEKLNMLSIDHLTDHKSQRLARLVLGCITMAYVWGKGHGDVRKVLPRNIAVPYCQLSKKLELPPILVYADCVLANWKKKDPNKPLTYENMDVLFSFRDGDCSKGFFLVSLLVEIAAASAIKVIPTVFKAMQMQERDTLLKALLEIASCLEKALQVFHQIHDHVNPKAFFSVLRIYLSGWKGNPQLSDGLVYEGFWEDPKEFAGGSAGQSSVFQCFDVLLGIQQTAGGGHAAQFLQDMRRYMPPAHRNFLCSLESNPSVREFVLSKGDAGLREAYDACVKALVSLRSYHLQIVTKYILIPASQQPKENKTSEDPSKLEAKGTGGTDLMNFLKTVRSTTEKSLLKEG
Outline: (§1)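 Reactions were stopped with TCA, converting N-formylkynurenine to kynurenine for quantitation, with IC50 by nonlinear regression. IDO: 6 nM enzyme, 10 μM L-Trp, 20 min RT. TDO: 1 nM enzyme, 350 μM L-Trp, 70 min RT, both in pH 6.5 buffer.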

[2] = molecular target: T2, Human Tryptophan 2,3-dioxygenase (TDO) (Homo sapiens, UniProt P48775); experiment: Human TDO enzymatic assay (kynurenine level); assay type: biochemical; details: 1 nM TDO, 350 μM L-Trp; geometric mean; read-out: TDO GMean: IC50 (μM) (Biochemical Assay)
T2 construct: His tag (N); made in house; host or cells: E. coli
T2 sequence (P48775 whole entry): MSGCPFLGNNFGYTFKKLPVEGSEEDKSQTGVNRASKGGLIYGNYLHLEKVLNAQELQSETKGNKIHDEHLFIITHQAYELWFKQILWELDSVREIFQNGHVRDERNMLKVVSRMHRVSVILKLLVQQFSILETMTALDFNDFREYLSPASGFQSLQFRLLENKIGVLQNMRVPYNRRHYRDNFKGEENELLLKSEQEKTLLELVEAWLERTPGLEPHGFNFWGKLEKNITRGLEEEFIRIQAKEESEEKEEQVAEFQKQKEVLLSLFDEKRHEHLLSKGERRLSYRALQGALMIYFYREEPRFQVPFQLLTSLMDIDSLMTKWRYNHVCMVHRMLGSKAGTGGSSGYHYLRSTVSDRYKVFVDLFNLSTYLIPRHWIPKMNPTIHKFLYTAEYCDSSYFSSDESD
Outline: as §1

[3] = molecular target: T3, human IDO (IDO1-expressing HEK293 cells) (Homo sapiens, UniProt P14902); experiment: Cell based kynurenine assay, IDO1-expressing HEK293 cell clones; details: IDO1-expressing HEK293 cells, geometric mean, read-out: HEK293 IDO1 Kynurenine GMean IC50 (μM) (Cellular Assay)
T3 construct: expressed in transfected cells
T3 sequence (P14902 whole entry): as the sequence (P14902 whole entry) above
Outline: (§2)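 Supernatant kynurenine was measured after 24 h exposure of stably transfected HEK293 cells (human IDO1 or TDO, 2.5×10^4/well) to serially diluted compound. Percent inhibition used 0.2% DMSO cell wells as high and media-only wells as low controls; IC50 fitted by nonlinear regression.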

[4] = molecular target: T4, human TDO (TDO-expressing HEK293 cells) (Homo sapiens, UniProt P48775); experiment: Cell based kynurenine assay, TDO-expressing HEK293 cell clones; details: TDO-expressing HEK293 cells, geometric mean, read-out: HEK293 TDO Kynurenine GMean IC50 (μM) (Cellular Assay)
T4 construct: expressed in transfected cells
T4 sequence (P48775 whole entry): as the sequence (P48775 whole entry) above
Outline: as §2

Row | IC50 [1] [µM] | IC50 [2] [µM] | IC50 ([3]; 24 hours) [µM] | IC50 ([4]; 24 hours) [µM] | IC50 ([3]; 24 hours incubation) [µM] | IC50 ([4]; 24 hours incubation) [µM] | SMILES
1 | 0.0001 to 10 | 0.0001 to 10 | 0.0001 to 10 | 0.0001 to 10 | – | – | CCC(=O)N1CCC(C(C)(C)[C@H](O)c2cc(Cl)cc3cn[nH]c23)CC1 [Compound P-0444, (S)-1-(4-(1-(5-chloro-1H-indazol-7-yl)-1-hydroxy-2-methylpropan-2-yl)piperidin-1-yl)propan-l-one]
2 | 0.0001 to 10 | 0.0001 to 10 | – | – | 0.0001 to 10 | 0.0001 to 10 | CC(C)(C1CCN(C(=O)NC2CC2)CC1)C(O)c1cc(Cl)cc2cn[nH]c12 (centres unmarked) [Compound P-0176, 4-(1-(5-chloro-1H-indazol-7-yl)-1-hydroxy-2-methylpropan-2-yl)-N-cyclopropylpiperidine-1-carboxamide]
3 | 0.0001 to 10 | 0.0001 to 10 | – | – | 0.0001 to 10 | 0.0001 to 10 | OC(c1cc(Cl)cc2cn[nH]c12)C12CCC(F)(CC1)CC2 (centres unmarked) [Compound P-0227, (5-chloro-1H-indazol-7-yl)(4-fluorobicyclo[2.2.2]octan-1-yl)methanol]
4 | 0.0001 to 10 | 0.0001 to 10 | – | – | 0.0001 to 10 | 0.0001 to 10 | O=C(Nc1ccc(F)cc1)N1CCC(C2(C(O)c3cc(Cl)cc4cn[nH]c34)CC2)CC1 (centres unmarked) [Compound P-0157, 4-(1-((5-chloro-1H-indazol-7-yl)(hydroxy)methyl)cyclopropyl)-N-(4-fluorophenyl)piperidine-1-carboxamide]
5 | 0.0001 to 10 | 0.0001 to 10 | – | – | 0.0001 to 10 | 0.0001 to 10 | CC(=O)N1CC2CCC(C1)C2CC(O)c1cc(Cl)cc2cn[nH]c12 (centres unmarked) [Compound P-0281, 1-(8-(2-(5-chloro-1H-indazol-7-yl)-2-hydroxyethyl)-3-azabicyclo[3.2.1]octan-3-yl)ethan-1-one]
6 | 0.0001 to 10 | 0.0001 to 10 | – | – | 0.0001 to 10 | 0.0001 to 10 | CC(C)(C)C1CC(O)(c2cc(Cl)cc3cn[nH]c23)C1 (centres unmarked) [Compound P-0214, 3-(tert-butyl)-1-(5-chloro-1H-indazol-7-yl)cyclobutan-1-ol]
7 | 0.0001 to 10 | 0.0001 to 10 | 0.0001 to 10 | 0.0001 to 10 | – | – | CC(C)(C1CCN(C(=O)CC2CCOCC2)CC1)[C@H](O)c1cc(Cl)cc2cn[nH]c12 [Compound P-0532, (S)-1-(4-(1-(5-chloro-1H-indazol-7-yl)-1-hydroxy-2-methylpropan-2-yl)piperidin-1-yl)-2-(tetrahydro-2H-pyran-4-yl)ethan-1-one]
8 | 0.0001 to 10 | 0.0001 to 10 | – | – | 0.0001 to 10 | > 10 | OC(c1cc(F)cc2cn[nH]c12)C12CC3CC(CC(C3)C1)C2 (centres unmarked) [Compound P-0043, adamantan-1-yl(5-fluoro-1H-indazol-7-yl)methanol]
9 | 0.0001 to 10 | 0.0001 to 10 | 0.0001 to 10 | 0.0001 to 10 | – | – | COCC(=O)N1CCC(C(C)(C)[C@H](O)c2cc(Cl)cc3cn[nH]c23)CC1 [Compound P-0533, (S)-1-(4-(1-(5-chloro-1H-indazol-7-yl)-1-hydroxy-2-methylpropan-2-yl)piperidin-1-yl)-2-methoxyethan-1-one]
10 | 0.0001 to 10 | 0.0001 to 10 | – | – | 0.0001 to 10 | 0.0001 to 10 | COCCCNC(=O)N1CCC(C(C)(C)C(O)c2cc(Cl)cc3cn[nH]c23)CC1 (centres unmarked) [Compound P-0357, 4-(1-(5-chloro-1H-indazol-7-yl)-1-hydroxy-2-methyipropan-2-yl)-N-(3-methoxypropyl) piperidine-1-carboxamide]
11 | 0.0001 to 10 | 0.0001 to 10 | 0.0001 to 10 | 0.0001 to 10 | – | – | O=C(Cc1ccc(Cl)c(F)c1)N1CCC(C(F)(F)C(O)c2cc(Cl)cc3cn[nH]c23)CC1 (centres unmarked) [Compound P-0523, 1-(4-(2-(5-chloro-1H-indazol-7-yl)-1,1-difluoro-2-hydroxyethyl)piperidin-1-yl)-2-(4-chloro-3-fluorophenyl)ethan-1-one]
12 | 0.0001 to 10 | 0.0001 to 10 | – | – | 0.0001 to 10 | > 10 | OC(c1c2c(cc3cn[nH]c13)CC2)C1(C2CCOCC2)CC1 (centres unmarked) [Compound P-0277, (5,6-dihydro-1H-cyclobuta[f]indazol-7-yl)(1-(tetrahydro-2H-pyran-4-yl)cyclopropyl)methanol]
13 | 0.0001 to 10 | 0.0001 to 10 | – | – | 0.0001 to 10 | > 10 | OC1(c2c(F)c(Cl)c(F)c3cn[nH]c23)CC2(C1)C1CCCC2CCC1 (centres unmarked) [Compound P-0249, (1s,5s)-3′-(5-chloro-4,6-difluoro-1H-indazol-7-yl)spiro[bicyclo[3.3.1]nonane-9,1′-cyclobutan]-3′-ol]
14 | 0.0001 to 10 | 0.0001 to 10 | 0.0001 to 10 | 0.0001 to 10 | – | – | O=C(Cc1cccc(Cl)c1)N1CCC(C(F)(F)C(O)c2cc(Cl)cc3cn[nH]c23)CC1 (centres unmarked) [Compound P-0520, 1-(4-(2-(5-chloro-1H-indazol-7-yl)-1,1-difluoro-2-hydroxyethyl)piperidin-1-yl)-2-(3-chlorophenyl) ethan-1-one]
15 | 0.0001 to 10 | 0.0001 to 10 | – | – | 0.0001 to 10 | 0.0001 to 10 | CC1(C(O)c2cc(Br)cc3cn[nH]c23)CCCCC1 (centres unmarked) [Compound P-0263, (5-bromo-1H-indazol-7-yl)(1-methylcyclohexyl)methanol]
16 | 0.0001 to 10 | 0.0001 to 10 | 0.0001 to 10 | 0.0001 to 10 | – | – | CC(C)(C1CCN(C(=O)C2CCOCC2)CC1)[C@H](O)c1c(F)c(Cl)cc2cn[nH]c12 [Compound P-0507, (S)-(4-(1-(5-chloro-6-fluoro-1H-indazol-7-yl)-1-hydroxy-2-methylpropan-2-yl)piperidin-1-yl)(tetrahydro-2H-pyran-4-yl)methanone]
17 | 0.0001 to 10 | 0.0001 to 10 | – | – | 0.0001 to 10 | 0.0001 to 10 | COCC(=O)N1CCC(C(F)(F)C(O)c2c(F)c(Cl)cc3cn[nH]c23)CC1 (centres unmarked) [Compound P-0376, 1-(4-(2-(5-chloro-6-fluoro-1H-indazol-7-yl)-1,1-difluoro-2-hydroxyethyl)piperidin-1-yl)-2-methoxyethan-1-one]
18 | 0.0001 to 10 | 0.0001 to 10 | – | – | 0.0001 to 10 | 0.0001 to 10 | CS(=O)(=O)N1C[C@H]2CC[C@@H](C1)[C@H]2C(F)(F)C(O)c1cc(Cl)cc2cn[nH]c12 (stereo partly drawn) [Compound P-0131, 1-(5-chloro-1H-indazol-7-yl)-2,2-difluoro-2-((1R,5S,8s)-3-(methylsulfonyl)-3-azabicyclo[3.2.l]octan-8-yl)ethan-l-ol]
19 | 0.0001 to 10 | 0.0001 to 10 | – | – | > 10 | 0.0001 to 10 | OC1(c2cc(Cl)cc3cn[nH]c23)CC2(CCC2)C1 [Compound P-0012, 2-(5-chloro-1H-indazol-7-yl)spiro[3.3]heptan-2-ol]
20 | 0.0001 to 10 | 0.0001 to 10 | – | – | 0.0001 to 10 | 0.0001 to 10 | CC1(C(O)c2cc(Cl)cc3cn[nH]c23)CCN(S(C)(=O)=O)CC1 (centres unmarked) [Compound P-0286, (5-chloro-1H-indazol-7-yl)(4-methyl-1-(methylsulfonyl)piperidin-4-yl)methanol]
21 | 0.0001 to 10 | 0.0001 to 10 | 0.0001 to 10 | 0.0001 to 10 | – | – | CC(C)(C1CCN(C(=O)NCc2ccccn2)CC1)C(O)c1cc(Cl)cc2cn[nH]c12 (centres unmarked) [Compound P-0477, 4-(1-(5-chloro-1H-indazol-7-yl)-1-hydroxy-2-methylpropan-2-yl)-N-(pyridin-2-ylmethyl)piperidine-1-carboxamide]
22 | 0.0001 to 10 | 0.0001 to 10 | 0.0001 to 10 | 0.0001 to 10 | – | – | CN(C)CC(=O)N1CCC(C(C)(C)[C@H](O)c2cc(Cl)cc3cn[nH]c23)CC1 [Compound P-0547, (S)-1-(4-(1-(5-chloro-1H-indazol-7-yl)-1-hydroxy-2-methylpropan-2-yl)piperidin-1-yl)-2-(dimethylamino) ethan-1-one]
23 | 0.0001 to 10 | 0.0001 to 10 | – | – | 0.0001 to 10 | 0.0001 to 10 | OC(c1c(F)c(Cl)cc2cn[nH]c12)C12CC3CC(CC(C3)C1)C2 [Compound P-0257, ((1S,3s)-adamantan-1-yl)(5-chloro-6-fluoro-1H-indazol-7-yl)methanol]
24 | 0.0001 to 10 | 0.0001 to 10 | 0.0001 to 10 | 0.0001 to 10 | – | – | CC(C)(C)OC(=O)N1CCC(C(F)(F)[C@H](O)c2cc(Cl)cc3cn[nH]c23)CC1 [Compound P-0516, tert-butyl (R)-4-(2-(5-chloro-1H-indazol-7-yl)-1,1-difluoro-2-hydroxyethyl) piperidine-1-carboxylate]
25 | 0.0001 to 10 | 0.0001 to 10 | – | – | > 10 | > 10 | Cc1cc(C2(O)CC3(CCC3)C2)c2[nH]ncc2c1 [Compound P-0030, 2-(5-methyl-1H-indazol-7-yl)spiro[3.3]heptan-2-ol]
26 | 0.0001 to 10 | 0.0001 to 10 | – | – | 0.0001 to 10 | 0.0001 to 10 | CC(C)(C1CCN(S(=O)(=O)C2CC2)CC1)C(O)c1cc(Cl)cc2cn[nH]c12 (centres unmarked) [Compound P-0306]
